Data taken from US12686674B2, “Crystal form of compound represented by formula I, and preparation therefor and application thereof” (Shanghai Zhimeng Biopharma, Inc., priority 2021, dated 2026).

Tests used:
Type in all cases: physicochemical
[1] = Influencing factor test of crystal form A (high temperature, high humidity, light); conditions: High temperature (60° C.), Day 30
[2] = Rough solubility at room temperature
Experimental: Specifically, ~2 mg of the starting material was weighed in an HPLC vial, the solvents in the following table were added step by step (50/50/200/700 μL) until the solid is completely dissolved or the total volume reaches 1.0 mL.

[3] = Solid-state stability, placed open one and two weeks (HPLC purity, XRPD)
Experimental: Purity tests (HPLC) and crystal form detection (XRPD) were performed on starting samples, samples stored for one week and two weeks.

[4] = Influencing factor test of crystal form A (high temperature, high humidity, light)
Text: Sample purity and solubility data were collected using an Agilent model 1260 high-performance liquid chromatograph (equipped with DAD detector). [table]

[5] = High humidity (25° C., 90% ± 5%), Day 5
[6] = High humidity (25° C., 90% ± 5%), Day 10
[7] = High humidity (25° C., 90% ± 5%), Day 30
[8] = High temperature (60° C.), Day 5
[9] = High temperature (60° C.), Day 10
[10] = High temperature (60° C.), Day 30
[11] = High temperature and humidity (60° C., 75% ± 5%), Day 5
[12] = High temperature and humidity (60° C., 75% ± 5%), Day 10
[13] = High temperature and humidity (60° C., 75% ± 5%), Day 30
[14] = Light exposure (25° C., 4500 Lx ± 500 Lx, NUV 0.9 w/m^2), bare sample, Day 5
[15] = Light exposure (25° C., 4500 Lx ± 500 Lx, NUV 0.9 w/m^2), bare sample, Day 10
[16] = Light exposure (25° C., 4500 Lx ± 500 Lx, NUV 0.9 w/m^2), bare sample, Day 30

O=C1CO[C@H](c2cn(-c3ccc(Br)cc3)nc2-c2ccc(F)cc2)N1CCc1ccc2[nH]c(=O)[nH]c2c1 [Crystal form A]
4:0.03%: Other single impurity RRT~1.44 (HPLC) ([4]; Day 0, Table M-2) | Other single impurity RRT~1.24 (HPLC) ([4]; Day 0, Table M-3) | Other single impurity RRT~1.24 (HPLC) [4, 6] | Other single impurity RRT~1.24 (HPLC) [4, 7] | Other single impurity RRT~1.24 (HPLC) [4, 9] | Other single impurity RRT~1.24 (HPLC) [4, 10] | Other single impurity RRT~1.24 (HPLC) [4, 11] | Other single impurity RRT~1.24 (HPLC) [4, 12] | Other single impurity RRT~1.24 (HPLC) [4, 13] | Other single impurity RRT~1.24 (HPLC) [4, 14] | Other single impurity RRT~1.24 (HPLC) [4, 15] | Other single impurity RRT~1.24 (HPLC) [4, 16]
0.21%: Moisture (KF) [4, 5]
99.4%: Content (HPLC, calculated by anhydrous substance) [4, 5]
99.08 Area %: Purity(Area %) ([3]; 1 week, 25° C./60% RH, open)
99.2%: Content (HPLC, calculated by anhydrous substance) ([4]; Day 0, Table M-2)
Unchanged: change in Crystal form (XRPD) ([3]; 1 week, 25° C./60% RH, 40° C./75% RH, 60° C.) | change in Crystal form (XRPD) ([3]; 2 week, 25° C./60% RH, 40° C./75% RH, 60° C.)
0:0.14%: Other single impurity RRT~1.10 (HPLC) ([4]; Day 0, Table M-2) | Other single impurity RRT~1.10 (HPLC) [4, 5] | Other single impurity RRT~1.10 (HPLC) [4, 9] | Other single impurity RRT~1.10 (HPLC) [4, 10] | Other single impurity RRT~1.10 (HPLC) [4, 11] | Other single impurity RRT~1.10 (HPLC) [4, 12] | Other single impurity RRT~1.10 (HPLC) [4, 13] | Other single impurity RRT~1.10 (HPLC) [4, 14] | Other single impurity RRT~1.10 (HPLC) [4, 15]
99.3%: Content (HPLC, calculated by anhydrous substance) [4, 13]
100.9%: Content (HPLC, calculated by anhydrous substance) [4, 10]
6:0.03%: Other single impurity RRT~1.46 (HPLC) [4, 6] | Other single impurity RRT~1.56 (HPLC) [4, 6] | Other single impurity RRT~1.46 (HPLC) [4, 9] | Other single impurity RRT~1.56 (HPLC) [4, 9] | Other single impurity RRT~1.46 (HPLC) [4, 11] | Other single impurity RRT~1.56 (HPLC) [4, 11] | Other single impurity RRT~1.96 (HPLC) [4, 13] | Other single impurity RRT~1.46 (HPLC) [4, 14] | Other single impurity RRT~1.56 (HPLC) [4, 14]
100.7%: Content (HPLC, calculated by anhydrous substance) [4, 15]
9:0.03%: Other single impurity RRT~1.59 (HPLC) [4, 5] | Other single impurity RRT~1.59 (HPLC) [4, 7] | Other single impurity RRT~1.59 (HPLC) [4, 8] | Other single impurity RRT~1.59 (HPLC) [4, 12] | Other single impurity RRT~1.59 (HPLC) [4, 15]
0.23%: Moisture (KF) [4, 6]
0.11%: Moisture (KF) ([4]; Day 0, Table M-2) | Moisture (KF) ([4]; Day 0, Table M-3)
6800 to 20300 µg/mL: solubility ([2]; organic solvent or mixture, thermodynamic from solid, Acetone)
99.1%: Content (HPLC, calculated by anhydrous substance) [4, 8]
> 40400 µg/mL: solubility ([2]; organic solvent or mixture, thermodynamic from solid, DMSO) | solubility ([2]; organic solvent or mixture, thermodynamic from solid, THF)
2000 to 6600 µg/mL: solubility ([2]; organic solvent or mixture, thermodynamic from solid, MEK) | solubility ([2]; organic solvent or mixture, thermodynamic from solid, MeOH)
0.28%: Total impurities (HPLC) [4, 6]
99.6%: Content (HPLC, calculated by anhydrous substance) [4, 11] | Content (HPLC, calculated by anhydrous substance) [4, 14]
99.09 Area %: Purity(Area %) ([3]; 1 week, 60° C., open)
> 41800 µg/mL: solubility ([2]; organic solvent or mixture, thermodynamic from solid, CH3COOH)
0.29%: Total impurities (HPLC) [4, 8] | Total impurities (HPLC) [4, 10] | Total impurities (HPLC) [4, 11]
101.3%: Content (HPLC, calculated by anhydrous substance) [4, 7] | Content (HPLC, calculated by anhydrous substance) [4, 12]
0.09%: Moisture (KF) [1] | Moisture (KF) [4, 8] | Moisture (KF) [4, 9]
4:0.04%: Other single impurity RRT~1.24 (HPLC) [4, 5] | Other single impurity RRT~1.24 (HPLC) [4, 8]
< 2000 µg/mL: solubility ([2]; organic solvent or mixture, thermodynamic from solid, CPME) | solubility ([2]; organic solvent or mixture, thermodynamic from solid, IPAc) | solubility ([2]; organic solvent or mixture, thermodynamic from solid, MIBK) | solubility ([2]; organic solvent or mixture, thermodynamic from solid, MTBE) | solubility ([2]; organic solvent or mixture, thermodynamic from solid, Toluene) | solubility ([2]; organic solvent or mixture, thermodynamic from solid, n-Heptane)
2000 to 6700 µg/mL: solubility ([2]; organic solvent or mixture, thermodynamic from solid, EtOH)
99.7%: Content (HPLC, calculated by anhydrous substance) [4, 6]
6900 to 20700 µg/mL: solubility ([2]; organic solvent or mixture, thermodynamic from solid, 1,4-Dioxane) | solubility ([2]; organic solvent or mixture, thermodynamic from solid, 2-MeTHF)
99.8%: Content (HPLC, calculated by anhydrous substance) ([4]; Day 0, Table M-3) | Content (HPLC, calculated by anhydrous substance) [4, 9] | Content (HPLC, calculated by anhydrous substance) [4, 16]
0.12%: Moisture (KF) [4, 11]
0:0.15%: Other single impurity RRT~1.10 (HPLC) [4, 7]
3:0.03%: Other single impurity RRT~1.23 (HPLC) ([4]; Day 0, Table M-2) | Other single impurity RRT~1.53 (HPLC) ([4]; Day 0, Table M-2) | Other single impurity RRT~1.93 (HPLC) [4, 6] | Other single impurity RRT~1.93 (HPLC) [4, 9] | Other single impurity RRT~1.93 (HPLC) [4, 11] | Other single impurity RRT~1.93 (HPLC) [4, 14]
< 2100 µg/mL: solubility ([2]; organic solvent or mixture, thermodynamic from solid, ACN) | solubility ([2]; organic solvent or mixture, thermodynamic from solid, DCM) | solubility ([2]; organic solvent or mixture, thermodynamic from solid, EtOAc) | solubility ([2]; organic solvent or mixture, thermodynamic from solid, IPA) | solubility ([2]; water, thermodynamic from solid, H2O)
2:0.03%: Other single impurity RRT~1.92 (HPLC) [4, 5] | Other single impurity RRT~1.92 (HPLC) [4, 7] | Other single impurity RRT~1.92 (HPLC) [4, 8] | Other single impurity RRT~1.92 (HPLC) [4, 10]
8:0.03%: Other single impurity RRT~1.48 (HPLC) ([4]; Day 0, Table M-3) | Other single impurity RRT~1.58 (HPLC) ([4]; Day 0, Table M-3) | Other single impurity RRT~1.48 (HPLC) [4, 5] | Other single impurity RRT~1.88 (HPLC) [4, 6] | Other single impurity RRT~1.48 (HPLC) [4, 7] | Other single impurity RRT~1.48 (HPLC) [4, 8] | Other single impurity RRT~1.48 (HPLC) [4, 10] | Other single impurity RRT~1.58 (HPLC) [4, 10] | Other single impurity RRT~1.88 (HPLC) [4, 11] | Other single impurity RRT~1.48 (HPLC) [4, 12] | Other single impurity RRT~1.48 (HPLC) [4, 13] | Other single impurity RRT~1.58 (HPLC) [4, 13] | Other single impurity RRT~1.48 (HPLC) [4, 15] | Other single impurity RRT~1.48 (HPLC) [4, 16] | Other single impurity RRT~1.58 (HPLC) [4, 16]
0.10%: Moisture (KF) [4, 7] | Moisture (KF) [4, 14] | Moisture (KF) [4, 15] | Moisture (KF) [4, 16]
99.14 Area %: Purity(Area %) ([3]; 2 week, 40° C./75% RH, open)
99.12 Area %: Purity(Area %) ([3]; 2 week, 25° C./60% RH, open) | Purity(Area %) ([3]; Starting sample)
99.13 Area %: Purity(Area %) ([3]; 2 week, 60° C., open)
7:0.03%: Other single impurity RRT~1.87 (HPLC) ([4]; Day 0, Table M-2) | Other single impurity RRT~1.97 (HPLC) ([4]; Day 0, Table M-3) | Other single impurity RRT~1.97 (HPLC) [4, 5] | Other single impurity RRT~1.97 (HPLC) [4, 7] | Other single impurity RRT~1.97 (HPLC) [4, 8] | Other single impurity RRT~1.97 (HPLC) [4, 10] | Other single impurity RRT~1.97 (HPLC) [4, 12] | Other single impurity RRT~1.97 (HPLC) [4, 15] | Other single impurity RRT~1.97 (HPLC) [4, 16]
99.07 Area %: Purity(Area %) ([3]; 1 week, 40° C./75% RH, open)
0.26%: Total impurities (HPLC) ([4]; Day 0, Table M-2) | Total impurities (HPLC) [4, 9] | Total impurities (HPLC) [4, 12] | Total impurities (HPLC) [4, 13] | Total impurities (HPLC) [4, 14] | Total impurities (HPLC) [4, 15]
0.14%: Moisture (KF) [4, 12] | Moisture (KF) [4, 13]
0:0.13%: Other single impurity RRT~1.10 (HPLC) ([4]; Day 0, Table M-3) | Other single impurity RRT~1.10 (HPLC) [4, 6] | Other single impurity RRT~1.10 (HPLC) [4, 8] | Other single impurity RRT~1.10 (HPLC) [4, 16]
0.30%: Total impurities (HPLC) [4, 5] | Total impurities (HPLC) [4, 7]
0.25%: Total impurities (HPLC) ([4]; Day 0, Table M-3) | Total impurities (HPLC) [4, 16]
> 41200 µg/mL: solubility ([2]; organic solvent or mixture, thermodynamic from solid, DMF)
